Work on `COC(=O)C(Cl)c1cccc(C#N)c1` (stereo not drawn) yielded a melting point of 49 to 51 °C.

`CC(=O)c1nnn(-c2cccc(Cl)c2)c1C` showed a melting point of 82 to 84 °C.

For `O=C(O)c1ccc(-c2cccs2)o1`, the melting point was 169 to 171 °C.

Compound `CC(C)C(NC(=O)OC(C)(C)C)C(N)=NO` (stereo not drawn) has a melting point of 182 to 184 °C.

For `CC1Oc2ccccc2NC1=O` (stereo not drawn), the melting point was 142 to 144 °C.

For `NC(C(=O)O)(c1ccccc1F)C(F)(F)F` (stereo not drawn), the melting point was 113 to 115 °C.

With `Cc1cc(Oc2ccc(C(=O)O)cn2)ccc1C(C)C` the melting point was 122 to 124 °C.

`O=C(Nc1sccc1C(=O)O)c1ccc2c(c1)CCC2` gave a melting point of 214 to 216 °C.

For `Cc1cc(N)n(-c2ccccc2C(F)(F)F)n1`, the melting point was 102 to 104 °C.

`Cc1ccc(NC(=O)CC#N)cc1` showed a melting point of 188 to 190 °C.

`O=C(NCCCCl)OCc1ccccc1` gave a melting point of 30 to 32 °C.

Work on `Clc1ccc(OCC2CO2)cc1` (stereo not drawn) yielded a melting point of 31 to 33 °C.

For `O=C(Nc1ccc(-n2cnc3ccccc32)nc1)OCC(F)(F)F`, the melting point was 239 to 241 °C.

`Cc1[nH]oc(=N)c1-c1cccc(Cl)c1` showed a melting point of 148 to 150 °C.

In the case of `O=C(O)CCCn1c(=O)oc2ccccc21`, the melting point is reported as 141 to 143 °C.

In the case of `OCCN(Cc1ccccc1)Cc1ccccc1`, the melting point is reported as 41 to 43 °C.

Work on `NC(CNS(=O)(=O)c1ccc(F)cc1)=NO` yielded a melting point of 148 to 150 °C.

`Nc1nnc(SCC2COc3ccccc3O2)s1` (stereo not drawn) showed a melting point of 161 to 163 °C.

Work on `Cc1noc2nc(-c3ccccc3Cl)cc(C(=O)O)c12` yielded a melting point of 248 to 250 °C.

With `COc1ccccc1N(C)S(=O)(=O)c1ccc(Cl)c(C(=O)O)c1` the melting point was 179 to 181 °C.

With `O=C(Nc1sccc1C(=O)O)c1ccc(Cl)cc1O` the melting point was 244 to 246 °C.

`CN(C)S(=O)(=O)c1ccc(S(=O)(=O)Cl)cc1` showed a melting point of 134 to 136 °C.

`O=C1C=CC(=O)N1c1cccc(Cl)c1` gave a melting point of 86 to 88 °C.

Compound `CCOC(=O)c1cccnc1S` has a melting point of 99 to 101 °C.

In the case of `O=C(O)c1cc(-c2ccccc2)ns1`, the melting point is reported as 183 to 185 °C.

In the case of `Cc1cc[nH]c(=O)c1C(N)=O`, the melting point is reported as 235 to 237 °C.

For `Cc1oncc1C(=O)NC(C)C(=O)O` (stereo not drawn), the melting point was 159 to 161 °C.

`CCC(C)C(=O)NN` (stereo not drawn) showed a melting point of 88 to 90 °C.

Work on `CCOC(=O)c1cnn(-c2nc3ccccc3s2)c1N` yielded a melting point of 137 to 139 °C.

`OC(c1ccc[nH]1)C(F)(F)F` (stereo not drawn) gave a melting point of 47 to 49 °C.

Compound `COc1ccccc1NS(=O)(=O)c1cc(N)ccc1N1CCCC1` has a melting point of 159 to 161 °C.

With `CNS(=O)(=O)c1csc(C(=O)O)c1` the melting point was 170 to 172 °C.

In the case of `O=C(O)c1nnn(C2CC2)c1C(F)(F)F`, the melting point is reported as 90 to 92 °C.

`Cc1ccc(-n2nc(C(=O)O)ccc2=O)cc1Cl` showed a melting point of 240 to 242 °C.

Work on `O=C(O)c1ccc2nc(Cl)ccc2c1` yielded a melting point of 228 to 230 °C.

With `O=C(Cc1ccc(Cl)cc1)c1ccccc1` the melting point was 131 to 135 °C.

Work on `Cc1ccsc1C(=O)CC#N` yielded a melting point of 114 to 116 °C.

In the case of `NNC(=O)CCc1ccccc1O`, the melting point is reported as 166 to 168 °C.

For `CCc1ccccc1Nc1nc(N)nc(CCl)n1`, the melting point was 146 to 149 °C.

`Cc1ccc(Oc2ccc(N)cn2)cc1` showed a melting point of 90 to 92 °C.

`Nc1cc(CSCCO)ccn1` gave a melting point of 90 to 92 °C.

Work on `Cn1c(=O)c2[nH]c(Br)nc2n(C)c1=O` yielded a melting point of 299 to 301 °C.

For `N#C/C=C/c1ccc(Cl)cc1`, the melting point was 45 to 47 °C.

Work on `CCc1ccc(C(=O)O)cc1[N+](=O)[O-]` yielded a melting point of 158 to 160 °C.

For `O=C(O)CCCSc1ccc(Cl)cc1`, the melting point was 106 to 108 °C.

`O=C(O)C1(Cc2ccc(Cl)cc2)CCCC1` gave a melting point of 71 to 73 °C.

Work on `CN1CCN(c2ccc(C#N)cn2)CC1` yielded a melting point of 67 to 69 °C.

With `CCOc1ccc(CO)cc1OCC` the melting point was 37 to 39 °C.

Work on `Cc1c(Cl)cccc1NC(=O)CCl` yielded a melting point of 71 to 74 °C.

For `Cc1ccc(OCCCC(=O)Nc2ccc(C#N)cc2)cc1`, the melting point was 126 to 128 °C.

`O=c1[nH]c(-c2ccccc2)no1` showed a melting point of 184 to 186 °C.

Compound `N#CCC(=O)c1c[nH]c2cc(F)ccc12` has a melting point of 265 to 267 °C.

For `O=C(O)c1ccn(-c2cccc([N+](=O)[O-])c2)n1`, the melting point was 230 to 232 °C.

Work on `O=C(O)c1ccc2c(c1)C(=O)NC2=O` yielded a melting point of 267 to 269 °C.

For `Cc1cccc(-c2nc(N)n[nH]2)c1[N+](=O)[O-]`, the melting point was 242 to 244 °C.

With `NCc1cc2sccc2s1` the melting point was 58 to 60 °C.

Work on `Nc1cccc(-c2nccn2CC(=O)O)c1` yielded a melting point of 249 to 251 °C.

With `O=C(O)c1csc(-c2ccc(Br)s2)n1` the melting point was 248 to 250 °C.

Work on `Cc1cccc(C)c1OCCC(=O)O` yielded a melting point of 51 to 53 °C.

`O=C(O)CC(Br)C(=O)c1ccc(Cl)cc1` (stereo not drawn) showed a melting point of 113 to 117 °C.

Work on `N#Cc1ccccc1NC(=O)c1ccccn1` yielded a melting point of 136 to 138 °C.

For `O=C(Nc1cccc(Br)c1)c1cccc(S(=O)(=O)N2CCCCCC2)c1`, the melting point was 149 to 151 °C.

With `O=[N+]([O-])c1ccc(NCc2ccccn2)cc1` the melting point was 119 to 121 °C.

For `Cc1ncc(C(=O)O)s1`, the melting point was 209 to 211 °C.

`COc1cc(CC#N)cc(Cl)c1OCC(F)(F)F` gave a melting point of 98 to 100 °C.

Compound `NCc1cccc(N2CCOC2=O)c1` has a melting point of 93 to 95 °C.

For `CC(C(=O)O)N1C(=O)C2CC=CCC2C1=O` (stereo not drawn), the melting point was 123 to 125 °C.

`CCC(Oc1cccc(C)c1)C(=O)O` (stereo not drawn) gave a melting point of 72 to 74 °C.

For `CCOC(=O)c1[nH]cnc1N`, the melting point was 129 to 131 °C.

For `CC(C)c1ccc(C(=O)CCl)cc1`, the melting point was 44 to 46 °C.

`Brc1ccc(-c2nccs2)cc1` gave a melting point of 45 to 47 °C.

Work on `NC(CC(=O)O)C1CC1` (stereo not drawn) yielded a melting point of 209 to 211 °C.

Work on `NS(=O)(=O)c1cnn(-c2cccc(C(F)(F)F)c2)c1` yielded a melting point of 162 to 164 °C.

Work on `CCOC(=O)COc1ccc(C(N)=S)cc1` yielded a melting point of 126 to 128 °C.

`O=C1NC(=O)N(c2ccc3c(c2)OCO3)C1=O` gave a melting point of 195 to 197 °C.

For `COC(=O)CCCOc1ccccc1F`, the melting point was 29 to 31 °C.

With `Cc1cccc(-c2nc3cc(F)ccc3[nH]2)c1O` the melting point was 251 to 253 °C.

`Cc1cccc(CSCC(=O)O)c1` gave a melting point of 74 to 76 °C.

In the case of `O=C(O)Cc1ccc2c(c1)CCCC2`, the melting point is reported as 78 to 80 °C.

With `CCC(=O)NCC(=O)O` the melting point was 121 to 123 °C.

With `N#CCC(=O)c1ccc(F)c(F)c1` the melting point was 67 to 69 °C.

In the case of `CC(C)(C)NC(=O)NCCCl`, the melting point is reported as 104 to 106 °C.

For `CC(O)c1ccc(I)cc1` (stereo not drawn), the melting point was 43 to 45 °C.

`O=C1CCCN1c1cccc(O)c1` showed a melting point of 201 to 203 °C.

Compound `CSCCC(NS(=O)(=O)c1ccc2c(c1)OCCO2)C(=O)O` (stereo not drawn) has a melting point of 93 to 96 °C.

`CC(C)(C)c1ccc(OCCC(=O)O)cc1` showed a melting point of 94 to 96 °C.

`O=C(O)c1ccc(OCC(F)(F)F)cc1` gave a melting point of 200 to 202 °C.

`COC(=O)c1cc(=O)c2cc(Cl)ccc2[nH]1` gave a melting point of 179 to 181 °C.

With `CC(C)C(=O)Nc1ccc(N)cc1` the melting point was 74 to 76 °C.

In the case of `O=C(O)COc1cccc2cccnc12`, the melting point is reported as 125 to 127 °C.

Compound `Cn1ccnc1-c1cc(N)on1` has a melting point of 178 to 180 °C.

Work on `CS(=O)(=O)CCCBr` yielded a melting point of 35 to 37 °C.

Compound `O=C(CCl)/N=c1\sccn1Cc1ccccc1Cl` has a melting point of 82 to 84 °C.

`Nc1ccc(F)c(NS(=O)(=O)Cc2ccccc2)c1` showed a melting point of 172 to 174 °C.

With `CC(Cl)C(=O)Nc1ccccc1C(F)(F)F` (stereo not drawn) the melting point was 92 to 94 °C.

In the case of `N#CCC(=O)Nc1ccccc1Cl`, the melting point is reported as 124 to 126 °C.

Work on `CCOC(=O)c1nc(Br)sc1NC` yielded a melting point of 75 to 77 °C.

In the case of `O=C(CCl)NCc1cnn(-c2ccccc2)c1`, the melting point is reported as 110 to 112 °C.

With `O=C(O)c1cc(OC(F)F)cc(OC(F)F)c1` the melting point was 79 to 81 °C.

Compound `O=C(O)C1(c2cccc(C(F)(F)F)c2)CCOCC1` has a melting point of 147 to 149 °C.

With `O=C1C=CC(=O)N1c1cccc2ccccc12` the melting point was 103 to 105 °C.

Compound `COC(C)c1nc(C(=O)O)cs1` (stereo not drawn) has a melting point of 73 to 75 °C.

In the case of `O=C(O)Cn1cc(Br)ccc1=O`, the melting point is reported as 239 to 241 °C.
